Laboratory results reported in PMC7486443, “Generation of Phenothiazine with Potent Anti-TLK1 Activity for Prostate Cancer Therapy” (iScience, 2020).

Assays:
Assay in all cases: biochemical
Set-up in all cases: DiscoverX KINOMEscan scanMAX competition binding panel, single concentration, percent of control; remaining binding: dose or concentration left out as unconfirmed
Settings in all cases: KINOMEscan binding, percent of control; read-out: Table S4_SCANMAX REPORT - related to Fig. 1 / Percent Control
CAMK1B = molecular target: T1, CAMK1B (Homo sapiens, UniProt Q6P2M8)
T1 construct: gene PNCK
T1 sequence (Q6P2M8 whole entry): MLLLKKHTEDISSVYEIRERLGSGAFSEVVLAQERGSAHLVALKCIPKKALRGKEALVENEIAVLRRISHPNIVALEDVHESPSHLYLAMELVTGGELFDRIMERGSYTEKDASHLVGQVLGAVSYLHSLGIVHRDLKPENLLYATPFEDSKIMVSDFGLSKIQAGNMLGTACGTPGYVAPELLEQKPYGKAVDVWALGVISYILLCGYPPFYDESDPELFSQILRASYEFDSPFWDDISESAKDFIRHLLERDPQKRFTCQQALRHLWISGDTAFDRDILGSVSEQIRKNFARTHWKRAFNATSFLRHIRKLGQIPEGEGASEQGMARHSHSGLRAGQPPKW

LZK = molecular target: T2, LZK (Homo sapiens, UniProt O43283)
T2 construct: gene MAP3K13

ACVRL1 = ACVRL1 (Homo sapiens, UniProt P37023)
Chain of ACVRL1 (P37023 whole entry): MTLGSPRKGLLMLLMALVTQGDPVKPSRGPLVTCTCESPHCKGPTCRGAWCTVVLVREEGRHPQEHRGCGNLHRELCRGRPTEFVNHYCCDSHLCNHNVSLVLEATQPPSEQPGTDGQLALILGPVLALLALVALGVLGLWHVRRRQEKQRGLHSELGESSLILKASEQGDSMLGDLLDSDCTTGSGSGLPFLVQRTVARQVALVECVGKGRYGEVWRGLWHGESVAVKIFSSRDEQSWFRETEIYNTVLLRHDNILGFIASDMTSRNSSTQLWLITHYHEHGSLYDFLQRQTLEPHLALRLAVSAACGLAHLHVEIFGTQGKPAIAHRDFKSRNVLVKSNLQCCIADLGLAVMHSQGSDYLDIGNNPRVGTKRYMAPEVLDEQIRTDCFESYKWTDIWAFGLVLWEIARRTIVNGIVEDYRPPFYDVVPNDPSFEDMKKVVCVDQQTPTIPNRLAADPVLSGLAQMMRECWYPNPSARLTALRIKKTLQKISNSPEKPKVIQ

SgK110 = molecular target: T3, SgK110 (Homo sapiens, UniProt P0C264)
T3 construct: gene SBK3

MARK1 = MARK1 (Homo sapiens, UniProt Q9P0L2)
Chain of MARK1 (Q9P0L2 whole entry): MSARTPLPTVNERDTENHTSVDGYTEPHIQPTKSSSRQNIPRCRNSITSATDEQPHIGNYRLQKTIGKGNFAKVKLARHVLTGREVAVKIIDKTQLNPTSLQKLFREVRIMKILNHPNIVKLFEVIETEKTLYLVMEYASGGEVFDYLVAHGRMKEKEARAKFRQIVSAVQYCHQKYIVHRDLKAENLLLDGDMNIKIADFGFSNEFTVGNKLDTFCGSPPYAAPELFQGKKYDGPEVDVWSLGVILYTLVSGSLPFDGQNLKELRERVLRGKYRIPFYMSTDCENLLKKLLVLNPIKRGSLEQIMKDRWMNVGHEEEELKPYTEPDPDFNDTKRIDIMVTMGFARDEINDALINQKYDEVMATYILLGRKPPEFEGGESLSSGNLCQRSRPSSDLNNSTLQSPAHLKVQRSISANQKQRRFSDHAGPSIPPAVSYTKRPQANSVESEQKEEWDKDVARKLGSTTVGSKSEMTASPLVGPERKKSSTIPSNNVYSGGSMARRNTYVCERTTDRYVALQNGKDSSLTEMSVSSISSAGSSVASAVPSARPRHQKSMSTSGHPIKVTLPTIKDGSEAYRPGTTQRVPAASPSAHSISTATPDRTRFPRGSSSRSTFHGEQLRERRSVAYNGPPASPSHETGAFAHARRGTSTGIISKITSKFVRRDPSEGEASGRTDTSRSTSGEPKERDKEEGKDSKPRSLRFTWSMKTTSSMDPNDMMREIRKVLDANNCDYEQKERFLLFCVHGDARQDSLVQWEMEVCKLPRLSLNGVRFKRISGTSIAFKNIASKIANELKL

[1] = molecular target: T4, ABL1(Q252H)-nonphosphorylated (Homo sapiens, UniProt P00519, Q252H)
T4 construct: nonphosphorylated

ULK1 = ULK1 (Homo sapiens, UniProt O75385)
RET(M918T) = RET(M918T) (Homo sapiens, UniProt P07949, M918T)
NEK6 = NEK6 (Homo sapiens, UniProt Q9HC98)
Chain of NEK6 (Q9HC98 whole entry): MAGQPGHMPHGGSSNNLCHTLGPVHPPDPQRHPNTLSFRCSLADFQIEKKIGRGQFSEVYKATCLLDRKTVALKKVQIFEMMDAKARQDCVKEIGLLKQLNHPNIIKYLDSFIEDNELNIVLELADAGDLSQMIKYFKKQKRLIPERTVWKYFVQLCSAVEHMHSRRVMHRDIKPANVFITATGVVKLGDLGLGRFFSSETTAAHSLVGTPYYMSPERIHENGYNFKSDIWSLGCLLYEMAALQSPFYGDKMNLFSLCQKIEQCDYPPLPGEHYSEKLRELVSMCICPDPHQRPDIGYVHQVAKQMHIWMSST

HIPK1 = HIPK1 (Homo sapiens, UniProt Q86Z02)
Chain of HIPK1 (Q86Z02 whole entry): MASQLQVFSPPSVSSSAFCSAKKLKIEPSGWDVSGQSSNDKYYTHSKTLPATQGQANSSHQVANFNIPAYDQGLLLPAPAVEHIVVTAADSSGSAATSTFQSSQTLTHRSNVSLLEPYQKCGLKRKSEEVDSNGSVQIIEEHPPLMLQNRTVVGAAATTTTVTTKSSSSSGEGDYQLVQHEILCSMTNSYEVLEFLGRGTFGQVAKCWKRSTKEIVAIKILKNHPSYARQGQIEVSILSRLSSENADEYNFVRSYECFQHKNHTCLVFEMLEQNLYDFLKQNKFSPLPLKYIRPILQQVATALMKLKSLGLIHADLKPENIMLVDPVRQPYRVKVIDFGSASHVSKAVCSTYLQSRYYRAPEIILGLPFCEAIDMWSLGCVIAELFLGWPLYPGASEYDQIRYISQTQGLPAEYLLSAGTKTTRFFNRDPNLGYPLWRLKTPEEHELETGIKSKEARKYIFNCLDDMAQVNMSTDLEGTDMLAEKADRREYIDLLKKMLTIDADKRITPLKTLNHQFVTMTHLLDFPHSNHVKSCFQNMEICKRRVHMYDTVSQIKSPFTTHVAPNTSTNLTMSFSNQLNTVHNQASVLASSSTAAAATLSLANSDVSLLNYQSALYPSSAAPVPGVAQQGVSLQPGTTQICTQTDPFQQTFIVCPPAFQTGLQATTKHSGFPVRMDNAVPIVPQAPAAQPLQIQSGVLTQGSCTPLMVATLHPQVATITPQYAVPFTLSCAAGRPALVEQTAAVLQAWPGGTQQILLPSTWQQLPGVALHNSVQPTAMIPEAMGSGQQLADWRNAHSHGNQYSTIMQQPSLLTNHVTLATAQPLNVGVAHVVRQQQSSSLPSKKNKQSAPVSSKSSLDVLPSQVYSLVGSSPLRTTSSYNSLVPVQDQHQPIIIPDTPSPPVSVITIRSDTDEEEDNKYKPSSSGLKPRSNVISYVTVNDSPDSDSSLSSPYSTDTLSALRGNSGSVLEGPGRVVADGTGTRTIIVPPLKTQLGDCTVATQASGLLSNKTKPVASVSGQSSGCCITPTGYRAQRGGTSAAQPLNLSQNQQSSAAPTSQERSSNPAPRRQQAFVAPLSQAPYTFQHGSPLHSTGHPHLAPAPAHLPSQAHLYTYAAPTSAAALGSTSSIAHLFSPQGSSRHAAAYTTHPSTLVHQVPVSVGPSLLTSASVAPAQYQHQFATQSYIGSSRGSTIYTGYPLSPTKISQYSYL

EPHB3 = EPHB3 (Homo sapiens, UniProt P54753)
[2] = molecular target: T5, ABL1(E255K)-phosphorylated (Homo sapiens, UniProt P00519, E255K)
T5 construct: phosphorylated

ZAK = molecular target: T6, ZAK (Homo sapiens, UniProt Q9NYL2)
T6 construct: gene MAP3K20

LRRK2 = LRRK2 (Homo sapiens, UniProt Q5S007)
IKK-beta = molecular target: T7, IKK-beta (Homo sapiens, UniProt O14920)
T7 construct: gene IKBKB
T7 sequence (O14920 whole entry): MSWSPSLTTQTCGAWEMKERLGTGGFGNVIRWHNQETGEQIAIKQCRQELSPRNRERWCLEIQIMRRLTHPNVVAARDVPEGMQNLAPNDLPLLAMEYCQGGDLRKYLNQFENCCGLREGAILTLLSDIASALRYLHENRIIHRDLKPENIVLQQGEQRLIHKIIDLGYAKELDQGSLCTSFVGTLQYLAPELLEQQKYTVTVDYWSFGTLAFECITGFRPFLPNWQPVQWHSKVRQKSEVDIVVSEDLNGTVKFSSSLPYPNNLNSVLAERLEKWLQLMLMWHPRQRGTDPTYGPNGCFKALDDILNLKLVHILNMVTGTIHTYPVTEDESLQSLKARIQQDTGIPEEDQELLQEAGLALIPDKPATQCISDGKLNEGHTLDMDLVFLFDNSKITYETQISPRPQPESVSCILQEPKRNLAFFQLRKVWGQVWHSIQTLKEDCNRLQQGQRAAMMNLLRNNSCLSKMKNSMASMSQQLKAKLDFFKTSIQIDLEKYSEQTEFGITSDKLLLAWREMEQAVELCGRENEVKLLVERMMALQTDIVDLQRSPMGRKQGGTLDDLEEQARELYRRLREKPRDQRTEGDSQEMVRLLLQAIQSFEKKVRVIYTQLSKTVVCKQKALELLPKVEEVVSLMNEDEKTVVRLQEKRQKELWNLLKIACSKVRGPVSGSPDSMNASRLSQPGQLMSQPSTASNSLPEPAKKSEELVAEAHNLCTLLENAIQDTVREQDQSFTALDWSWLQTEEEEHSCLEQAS

[3] = molecular target: T8, ABL1(H396P)-nonphosphorylated (Homo sapiens, UniProt P00519, H396P)
T8 construct: nonphosphorylated

FLT3(N841I) = FLT3(N841I) (Homo sapiens, UniProt P36888, N841I)
PRKD1 = PRKD1 (Homo sapiens, UniProt Q15139)
Chain of PRKD1 (Q15139 whole entry): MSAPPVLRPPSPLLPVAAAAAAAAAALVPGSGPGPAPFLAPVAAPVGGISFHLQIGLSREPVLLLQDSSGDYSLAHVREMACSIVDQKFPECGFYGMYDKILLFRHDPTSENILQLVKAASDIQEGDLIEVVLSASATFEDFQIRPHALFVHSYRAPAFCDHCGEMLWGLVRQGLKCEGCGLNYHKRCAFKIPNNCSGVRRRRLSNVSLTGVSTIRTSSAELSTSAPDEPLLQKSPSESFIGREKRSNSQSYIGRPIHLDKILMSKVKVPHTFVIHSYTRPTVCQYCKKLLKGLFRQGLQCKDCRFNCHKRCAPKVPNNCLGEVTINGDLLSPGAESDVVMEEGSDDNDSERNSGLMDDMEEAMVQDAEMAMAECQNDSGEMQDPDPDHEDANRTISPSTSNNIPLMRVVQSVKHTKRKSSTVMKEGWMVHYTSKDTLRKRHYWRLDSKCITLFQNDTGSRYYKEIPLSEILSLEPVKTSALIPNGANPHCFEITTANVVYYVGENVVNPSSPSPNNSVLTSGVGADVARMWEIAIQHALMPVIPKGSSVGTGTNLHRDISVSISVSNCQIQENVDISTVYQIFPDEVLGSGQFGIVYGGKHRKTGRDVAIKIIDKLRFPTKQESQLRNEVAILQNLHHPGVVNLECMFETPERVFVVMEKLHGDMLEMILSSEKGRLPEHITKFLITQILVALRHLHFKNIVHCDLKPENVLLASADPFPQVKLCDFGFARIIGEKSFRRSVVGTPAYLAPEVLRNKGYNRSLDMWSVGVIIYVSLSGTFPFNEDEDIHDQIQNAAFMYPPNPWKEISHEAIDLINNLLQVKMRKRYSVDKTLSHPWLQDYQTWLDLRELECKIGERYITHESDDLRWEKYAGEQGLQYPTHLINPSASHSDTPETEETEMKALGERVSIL

c1ccc2c(c1)Sc1ccccc1N2CCN1CCOCC1 [J54]
remaining binding (CAMK1B): 94% | remaining binding (LZK): 92% | remaining binding (ACVRL1): 100% | remaining binding (SgK110): 100% | remaining binding (MARK1): 94% | remaining binding [1]: 78% | remaining binding (ULK1): 99% | remaining binding (RET(M918T)): 97% | remaining binding (NEK6): 92% | remaining binding (HIPK1): 85% | remaining binding (EPHB3): 100% | remaining binding [2]: 86% | remaining binding (ZAK): 85% | remaining binding (LRRK2): 100% | remaining binding (IKK-beta): 100% | remaining binding [3]: 86% | remaining binding (FLT3(N841I)): 99% | remaining binding (PRKD1): 97%
